The values that follow come from patent US12162878B2 (HINOVA PHARMACEUTICALS INC., priority 2018, dated 2024).

This assay relates to CWR22RV1 cells. Put plainly: Inhibition of proliferation of CWR22RV1 cells (CCK-8). In kind it is cell-based, human. The following applies: Homo sapiens, CWR22Rv1, 144 h, 6 days. As for the experimental part:
• CWR22RV1 cell line (Cell Bank of Chinese Academy of Sciences, TCHu100) • FBS (Gibco, Cat. No. 10099-141) • 0.01M PBS (Biosharp, Cat. No. 162262) • RIPM1640 (Hyclone, Cat. No. 308090.01) • Penicillin-Streptomycin (Hyclone, Cat. No. SV30010) • Cell counting kit-8 (Signalway Antibody, Cat. No. CP002) • DMSO (Sigma, Cat. No. D5879) • Centrifuge Tube, 15 ml (Excell Bio, Cat. No. CS015-0001) • Cell Culture Dish, (Excell Bio, Cat. No. CS016-0128) • 96-well cell culture cluster (Corning, Cat. No. 3599) • 2. Experimental method (1) Preparation of Buffer
1) CWR22RV1 cells were subcultured in cell culture medium, and the cells in good growth condition were seeded in a 96-well plate, 80 μL for each well, thus the number of cells per well was 1500, then the plate was cultured overnight in a 37° C., 5% CO2 cell incubator.
2) The drug was prepared with dimethyl sulfoxide (DMSO) as a 30 mM stock solution. Prior to use, the solution was diluted 3 times with DMSO, and then diluted with a 3-fold gradient to obtain 9 concentration gradients. Then, each concentration of the compound was further diluted 200 times with the culture solution (to ensure that DMSO concentration in the culture system was 0.1%), 2 repeat wells for each concentration. The diluted solution of each compound (20 μL) was added to the cell culture well (with a final concentration of 10 μM, 3.3 μM, 1.1 μM . . . ), and shaken gently for mixing. In addition, three negative control wells containing only cells and three blank control wells containing only culture medium (20 μL DMSO diluted 200 times with culture medium being added to six wells) were included.
(1) After culturing for 6 days, 10 μL CCK-8 was added to each well and cultured for additional 2.5 h in a 37° C., 5% CO2 cell incubator.
(2) The absorbance (OD value) at 450 nm was measured with a multifunctional microplate reader.
(3) The data was analyzed by the Dose-response-inhibition equation in the software GraphPad Prism6, and the IC50 value was obtained.
The term IC50 denotes the concentration at which inhibition is half-maximal. A lower IC50 goes with inhibition by little substance. For the molecule `[2H]C([2H])([2H])n1cc(-c2cc(S(=O)(=O)C3CC3)ccc2N2CC3(CCC3)C2)c2cc[nH]c2c1=O` [Compound 59, 4-(5-(cyclopropylsulfonyl)-2-(2-aza-spiro[3.3]heptan-2-yl)phenyl)-6-trideuteromethyl-1H-pyrrolo[2,3-c]pyridin-7(6H)-one], the midpoint of inhibition, the IC50, lay at 65 nM.

`[2H]C([2H])([2H])n1cc(-c2cc(S(N)(=O)=O)cnc2N2CCC3(CC3)C2)c2cc[nH]c2c1=O` [Compound 198, 5-(6-trideuteromethyl-7-oxo-6,7-dihydro-1H-pyrrolo[2,3-c]pyridin-4-yl)-6-(5-aza-spiro[2.4]heptan-5-yl)pyridin-3-sulfonamide]: the half-maximal inhibitory concentration (IC50) turned out to be 10 nM.

`Cn1cc(-c2cc(S(C)(=O)=O)ccc2N2CCCC2CCl)c2cc[nH]c2c1=O` (stereo not drawn) [Compound 249, 4-(2-(2-(chloromethyl)pyrrolidin-1-yl)-5-(methanesulfonyl)phenyl)-6-methyl-1H-pyrrolo[2,3-c]pyridin-7(6H)-one] showed an IC50 of 130 nM.

Molecule `[2H]C([2H])([2H])n1cc(-c2cc(S(=O)(=O)C(C)C)cnc2N2CCC3(CC2)CC3)c2cc[nH]c2c1=O` [Compound 188, 4-(5-(isopropylsulfonyl)-2-(6-aza-spiro[2.5]octan-6-yl)pyridin-3-yl)-6-trideuteromethyl-1H-pyrrolo[2,3-c]pyridin-7(6H)-one] displayed an IC50 of 38 nM.

Turning to `CCS(=O)(=O)c1ccc(N2CCC3(CC3)C2)c(-c2cn(C)c(=O)c3[nH]ccc23)c1` [Compound 25, 4-(5(ethylsulfonyl)-2-(5-aza-spiro[2.4]heptan-5-yl)phenyl)-6-methyl-1H-pyrrolo[2,3-c]pyridin-7(6H)-one], the IC50 was 26 nM.

`[2H]C([2H])([2H])n1cc(-c2cc(S(=O)(=O)CC)cnc2N2CCC3(CC2)CC3)c2cc[nH]c2c1=O` [Compound 186, 4-(5(ethylsulfonyl)-2-(6-aza-spiro[2.5]octan-6-yl)pyridin-3-yl)-6-trideuteromethyl-1H-pyrrolo[2,3-c]pyridin-7(6H)-one] displayed an IC50 of 21 nM.

`Cn1cc(-c2cc(NS(C)(=O)=O)ccc2N2CC3(COC3)C2)c2cc[nH]c2c1=O` [Compound 15, N-(3-(6-methyl-7-oxo-6,7-dihydro-1H-pyrrolo[2,3-c]pyridin-4-yl)-4-(2-oxa-6-aza-spiro[3.3]heptan-6-yl)phenyl)methanesulfonamide] yielded a half-inhibitory concentration (IC50) of 650 nM.

In the case of `Cn1cc(-c2cc(S(C)(=O)=O)ccc2N2CCC3(CC3)C2)c2cc[nH]c2c1=O` [Compound 24, 6-methyl-4-(5-(methylsulfonyl)-2-(5-aza-spiro[2.4]heptan-5-yl)phenyl)-1H-pyrrolo[2,3-c]pyridin-7(6H)-one], the IC50 came to 17 nM.

Take `Cn1cc(-c2cc(S(=O)(=O)C3CC3)ccc2N2CC3(COC3)C2)c2cc[nH]c2c1=O` [Compound 37, 4-(5-(cyclopropylsulfonyl)-2-(2-oxa-6-aza-spiro[3.3]heptan-6-yl)phenyl)-6-methyl-1H-pyrrolo[2,3-c]pyridin-7(6H)-one]: 490 nM corresponded to half-maximal inhibition (IC50).

In turn, `[2H]C([2H])([2H])n1cc(-c2cc(S(=O)(=O)CC(=O)O)ccc2N2CCC3(CC2)CC3)c2cc[nH]c2c1=O` [Compound 235, 2-((3-(6-trideuteromethyl-7-oxo-6,7-dihydro-1H-pyrrolo[2,3-c]pyridin-4-yl)-4-(6-aza-spiro[2.5]octan-6-yl)phenyl)sulfonyl)acetic acid] returned an IC50 of 1.7 nM.

With `Cn1cc(-c2cc(NS(C)(=O)=O)ccc2N2CC3CC2CO3)c2cc[nH]c2c1=O` (stereo not drawn) [Compound 192, N-(4-(2-oxa-5-azabicyclo[2.2.1]heptan-5-yl)-3-(6-methyl-7-oxo-6,7-dihydro-1H-pyrrolo[2,3-c]pyridin-4-yl)phenyl)methanesulfonamide], the half-inhibitory concentration (IC50) was 310 nM.

Molecule `[2H]C([2H])([2H])n1cc(-c2cc(S(C)(=O)=O)ccc2N2CCC3(CC2)CC3C(N)=O)c2cc[nH]c2c1=O` (stereo not drawn) [Compound 185, 6-(2-(6-trideuteromethyl-7-oxo-6,7-dihydro-1H-pyrrolo[2,3-c]pyridin-4-yl)-4-(methylsulfonyl)phenyl)-6-aza-spiro[2.5]octan-1-formamide] gave an IC50 of 1040 nM.
